Experimental data as given in the NIST ThermoML archive (doi:10.1016/j.jct.2015.04.027).

Experiment: xn = mol fraction of the nth substance listed
Conditions: 100 kPa, Liquid; for viscosity: Falling or rolling sphere viscometry; for mass density: Vibrating tube method

CN(C)C(=[NH2+])N(C)C.c1c[n-]cn1 [1,1,3,3-tetramethylguanidinium imidazol-1-ide] + CCCCO
Conditions | mass density, 293.15 K [kg/m3] | mass density, 298.15 K [kg/m3] | mass density, 303.15 K [kg/m3] | mass density, 308.15 K [kg/m3] | mass density, 313.15 K [kg/m3] | viscosity, 293.15 K [mPa·s] | viscosity, 298.15 K [mPa·s] | viscosity, 303.15 K [mPa·s] | viscosity, 308.15 K [mPa·s] | viscosity, 313.15 K [mPa·s]
x1 = 0.0499 | 828.74 | 824.87 | 820.97 | 817.04 | 813.07 | 3.053 | 2.7 | 2.399 | 2.141 | 1.92
x1 = 0.1004 | 845.73 | 841.79 | 837.82 | 833.83 | 829.83 | 3.248 | 2.868 | 2.549 | 2.276 | 2.04
x1 = 0.1999 | 875.01 | 870.95 | 866.87 | 862.77 | 858.67 | 3.727 | 3.272 | 2.89 | 2.569 | 2.298
x1 = 0.2997 | 899.57 | 895.41 | 891.24 | 887.07 | 882.9 | 4.41 | 3.801 | 3.323 | 2.931 | 2.604
x1 = 0.3985 | 920.24 | 916.05 | 911.78 | 907.55 | 903.31 | 5.155 | 4.414 | 3.823 | 3.343 | 2.948
x1 = 0.4997 | 938.26 | 933.99 | 929.7 | 925.4 | 921.09 | 6.003 | 5.029 | 4.322 | 3.751 | 3.286
x1 = 0.6499 | 960.31 | 955.97 | 951.62 | 947.27 | 942.92 | 7.076 | 5.887 | 5 | 4.267 | 3.737
x1 = 0.8002 | 978.39 | 974 | 969.59 | 965.19 | 960.8 | 8.02 | 6.617 | 5.547 | 4.739 | 4.097
x1 = 0.9004 | 988.56 | 984.14 | 979.72 | 975.28 | 970.84 | 8.6 | 7.032 | 5.877 | 5.021 | 4.299
x1 = 1 | 997.25 | 992.8 | 988.35 | 983.9 | 979.46 | 8.952 | 7.287 | 6.044 | 5.097 | 4.358

CN(C)C(=[NH2+])N(C)C.c1c[n-]cn1 [1,1,3,3-tetramethylguanidinium imidazol-1-ide] + CCCO
Conditions | mass density, 293.15 K [kg/m3] | mass density, 298.15 K [kg/m3] | mass density, 303.15 K [kg/m3] | mass density, 308.15 K [kg/m3] | mass density, 313.15 K [kg/m3] | viscosity, 293.15 K [mPa·s] | viscosity, 298.15 K [mPa·s] | viscosity, 303.15 K [mPa·s] | viscosity, 308.15 K [mPa·s] | viscosity, 313.15 K [mPa·s]
x1 = 0.0499 | 828.16 | 824.06 | 819.94 | 815.79 | 811.6 | 2.428 | 2.146 | 1.91 | 1.707 | 1.532
x1 = 0.0999 | 849.03 | 844.89 | 840.71 | 836.52 | 832.3 | 2.667 | 2.354 | 2.095 | 1.873 | 1.682
x1 = 0.2002 | 882.18 | 877.95 | 873.7 | 869.43 | 865.15 | 3.294 | 2.886 | 2.55 | 2.268 | 2.029
x1 = 0.2996 | 907.96 | 903.66 | 899.35 | 895.03 | 890.71 | 4.062 | 3.516 | 3.078 | 2.712 | 2.406
x1 = 0.4002 | 928.67 | 924.33 | 919.98 | 915.62 | 911.26 | 4.872 | 4.168 | 3.606 | 3.154 | 2.778
x1 = 0.4988 | 945.34 | 940.97 | 936.59 | 932.2 | 927.81 | 5.686 | 4.798 | 4.126 | 3.577 | 3.129
x1 = 0.6264 | 962.87 | 958.47 | 954.06 | 949.65 | 945.24 | 6.646 | 5.548 | 4.716 | 4.052 | 3.512
x1 = 0.8001 | 981.42 | 976.99 | 972.55 | 968.12 | 963.7 | 7.842 | 6.46 | 5.443 | 4.625 | 3.991
x1 = 0.9006 | 990.16 | 985.73 | 981.29 | 976.85 | 972.41 | 8.401 | 6.898 | 5.825 | 4.927 | 4.225
x1 = 1 | 997.25 | 992.8 | 988.35 | 983.9 | 979.46 | 8.952 | 7.287 | 6.044 | 5.097 | 4.358

CN(C)C(=[NH2+])N(C)C.c1c[n-]cn1 [1,1,3,3-tetramethylguanidinium imidazol-1-ide] + CCO
Conditions | mass density, 293.15 K [kg/m3] | mass density, 298.15 K [kg/m3] | mass density, 303.15 K [kg/m3] | mass density, 308.15 K [kg/m3] | mass density, 313.15 K [kg/m3] | viscosity, 293.15 K [mPa·s] | viscosity, 298.15 K [mPa·s] | viscosity, 303.15 K [mPa·s] | viscosity, 308.15 K [mPa·s] | viscosity, 313.15 K [mPa·s]
x1 = 0.0483 | 821.2 | 816.85 | 812.47 | 808.06 | 803.63 | 1.422 | 1.289 | 1.174 | 1.072 | 0.982
x1 = 0.0999 | 848.92 | 844.52 | 840.1 | 835.66 | 831.19 | 1.714 | 1.548 | 1.405 | 1.28 | 1.17
x1 = 0.2003 | 888.15 | 883.71 | 879.24 | 874.77 | 870.28 | 2.371 | 2.114 | 1.897 | 1.711 | 1.549
x1 = 0.3001 | 916.24 | 911.78 | 907.3 | 902.82 | 898.33 | 3.145 | 2.755 | 2.438 | 2.173 | 1.949
x1 = 0.3999 | 937.23 | 932.77 | 928.29 | 923.8 | 919.31 | 4.057 | 3.498 | 3.054 | 2.69 | 2.388
x1 = 0.5 | 953.33 | 948.83 | 944.31 | 939.83 | 935.34 | 5.057 | 4.296 | 3.643 | 3.174 | 2.822
x1 = 0.643 | 970.7 | 966.31 | 961.81 | 957.39 | 952.91 | 6.351 | 5.318 | 4.452 | 3.891 | 3.384
x1 = 0.7966 | 984.34 | 979.99 | 975.53 | 971.06 | 966.6 | 7.695 | 6.345 | 5.333 | 4.539 | 3.911
x1 = 0.8987 | 991.38 | 986.93 | 982.47 | 978.02 | 973.57 | 8.46 | 6.936 | 5.786 | 4.909 | 4.229
x1 = 1 | 997.25 | 992.8 | 988.35 | 983.9 | 979.46 | 8.952 | 7.287 | 6.044 | 5.097 | 4.358
